Source: the NIST ThermoML archive (doi:10.1021/je030226s)
± gives the expanded uncertainty stated by the source.

Key:
[1] = xn = mol fraction of the nth substance listed; settings: 101.32 kPa, Liquid
[2] = refractive index (Na D-line) (dimensionless); xn = mol fraction of the nth substance listed; settings: 101.32 kPa, Liquid

Compound `CCCCCl` [1-chlorobutane] + CO has a mass density ([1]; 288.15 K, x2 = 0) of 892.2 ± 0.6 kg/m3, a viscosity ([1]; 288.15 K, x2 = 0) of 0.472 ± 0.009 mPa·s and a mass density ([1]; 288.15 K, x2 = 0.05) of 889.6 ± 0.6 kg/m3. It also gave a viscosity ([1]; 288.15 K, x2 = 0.05) of 0.463 ± 0.009 mPa·s, a mass density ([1]; 288.15 K, x2 = 0.1) of 887.2 ± 0.6 kg/m3 and a viscosity ([1]; 288.15 K, x2 = 0.1) of 0.462 ± 0.009 mPa·s. The mass density ([1]; 288.15 K, x2 = 0.2) was 882.4 ± 0.7 kg/m3, the viscosity ([1]; 288.15 K, x2 = 0.2) was 0.465 ± 0.009 mPa·s and the mass density ([1]; 288.15 K, x2 = 0.3) was 876.9 ± 0.7 kg/m3. The viscosity ([1]; 288.15 K, x2 = 0.3) was 0.478 ± 0.009 mPa·s, the mass density ([1]; 288.15 K, x2 = 0.4) was 870.6 ± 0.7 kg/m3 and the viscosity ([1]; 288.15 K, x2 = 0.4) was 0.496 ± 0.009 mPa·s. The mass density ([1]; 288.15 K, x2 = 0.5) was 863.3 ± 0.7 kg/m3, the viscosity ([1]; 288.15 K, x2 = 0.5) was 0.516 ± 0.009 mPa·s and the mass density ([1]; 288.15 K, x2 = 0.6) was 854.6 ± 0.7 kg/m3. It also gave a viscosity ([1]; 288.15 K, x2 = 0.6) of 0.536 ± 0.009 mPa·s, a mass density ([1]; 288.15 K, x2 = 0.7) of 844.2 ± 0.8 kg/m3 and a viscosity ([1]; 288.15 K, x2 = 0.7) of 0.559 ± 0.009 mPa·s. It also gave a mass density ([1]; 288.15 K, x2 = 0.8) of 831.7 ± 0.8 kg/m3, a viscosity ([1]; 288.15 K, x2 = 0.8) of 0.581 ± 0.009 mPa·s and a mass density ([1]; 288.15 K, x2 = 0.9) of 815.9 ± 0.9 kg/m3. It also gave a viscosity ([1]; 288.15 K, x2 = 0.9) of 0.601 ± 0.01 mPa·s, a mass density ([1]; 288.15 K, x2 = 0.95) of 806.6 ± 0.9 kg/m3 and a viscosity ([1]; 288.15 K, x2 = 0.95) of 0.613 ± 0.01 mPa·s. For the same compound, the mass density ([1]; 298.15 K, x2 = 0) was 881 ± 0.7 kg/m3, the viscosity ([1]; 298.15 K, x2 = 0) was 0.423 ± 0.008 mPa·s and the mass density ([1]; 298.15 K, x2 = 0.05) was 878.4 ± 0.7 kg/m3. For the same compound, the viscosity ([1]; 298.15 K, x2 = 0.05) was 0.416 ± 0.008 mPa·s, the mass density ([1]; 298.15 K, x2 = 0.1) was 876.1 ± 0.7 kg/m3 and the viscosity ([1]; 298.15 K, x2 = 0.1) was 0.413 ± 0.008 mPa·s. For the same compound, the mass density ([1]; 298.15 K, x2 = 0.2) was 871.2 ± 0.7 kg/m3, the viscosity ([1]; 298.15 K, x2 = 0.2) was 0.412 ± 0.008 mPa·s and the mass density ([1]; 298.15 K, x2 = 0.3) was 865.6 ± 0.7 kg/m3. It also gave a viscosity ([1]; 298.15 K, x2 = 0.3) of 0.421 ± 0.008 mPa·s, a mass density ([1]; 298.15 K, x2 = 0.4) of 859.6 ± 0.7 kg/m3 and a viscosity ([1]; 298.15 K, x2 = 0.4) of 0.435 ± 0.008 mPa·s. For the same compound, the mass density ([1]; 298.15 K, x2 = 0.5) was 852.4 ± 0.7 kg/m3, the viscosity ([1]; 298.15 K, x2 = 0.5) was 0.45 ± 0.008 mPa·s and the mass density ([1]; 298.15 K, x2 = 0.6) was 843.9 ± 0.8 kg/m3. For the same compound, the viscosity ([1]; 298.15 K, x2 = 0.6) was 0.469 ± 0.009 mPa·s, the mass density ([1]; 298.15 K, x2 = 0.7) was 833.7 ± 0.8 kg/m3 and the viscosity ([1]; 298.15 K, x2 = 0.7) was 0.489 ± 0.009 mPa·s. It also gave a mass density ([1]; 298.15 K, x2 = 0.8) of 821.4 ± 0.8 kg/m3, a viscosity ([1]; 298.15 K, x2 = 0.8) of 0.506 ± 0.009 mPa·s and a mass density ([1]; 298.15 K, x2 = 0.9) of 806 ± 0.9 kg/m3. For the same compound, the viscosity ([1]; 298.15 K, x2 = 0.9) was 0.521 ± 0.009 mPa·s, the mass density ([1]; 298.15 K, x2 = 0.95) was 796.9 ± 0.9 kg/m3 and the viscosity ([1]; 298.15 K, x2 = 0.95) was 0.532 ± 0.009 mPa·s. For the same compound, the mass density ([1]; 308.15 K, x2 = 0) was 869.7 ± 0.7 kg/m3, the viscosity ([1]; 308.15 K, x2 = 0) was 0.382 ± 0.008 mPa·s and the mass density ([1]; 308.15 K, x2 = 0.05) was 867.1 ± 0.7 kg/m3. The viscosity ([1]; 308.15 K, x2 = 0.05) was 0.375 ± 0.008 mPa·s, the mass density ([1]; 308.15 K, x2 = 0.1) was 864.7 ± 0.7 kg/m3 and the viscosity ([1]; 308.15 K, x2 = 0.1) was 0.374 ± 0.008 mPa·s. It also gave a mass density ([1]; 308.15 K, x2 = 0.2) of 859.9 ± 0.7 kg/m3, a viscosity ([1]; 308.15 K, x2 = 0.2) of 0.376 ± 0.008 mPa·s and a mass density ([1]; 308.15 K, x2 = 0.3) of 854.5 ± 0.7 kg/m3. For the same compound, the viscosity ([1]; 308.15 K, x2 = 0.3) was 0.382 ± 0.008 mPa·s, the mass density ([1]; 308.15 K, x2 = 0.4) was 848.4 ± 0.8 kg/m3 and the viscosity ([1]; 308.15 K, x2 = 0.4) was 0.393 ± 0.008 mPa·s. The mass density ([1]; 308.15 K, x2 = 0.5) was 841.3 ± 0.8 kg/m3, the viscosity ([1]; 308.15 K, x2 = 0.5) was 0.407 ± 0.008 mPa·s and the mass density ([1]; 308.15 K, x2 = 0.6) was 833 ± 0.8 kg/m3. It also gave a viscosity ([1]; 308.15 K, x2 = 0.6) of 0.416 ± 0.008 mPa·s, a mass density ([1]; 308.15 K, x2 = 0.7) of 823.1 ± 0.8 kg/m3 and a viscosity ([1]; 308.15 K, x2 = 0.7) of 0.431 ± 0.008 mPa·s. The mass density ([1]; 308.15 K, x2 = 0.8) was 811 ± 0.9 kg/m3, the viscosity ([1]; 308.15 K, x2 = 0.8) was 0.445 ± 0.008 mPa·s and the mass density ([1]; 308.15 K, x2 = 0.9) was 796 ± 0.9 kg/m3. It also gave a viscosity ([1]; 308.15 K, x2 = 0.9) of 0.457 ± 0.009 mPa·s, a mass density ([1]; 308.15 K, x2 = 0.95) of 787.2 ± 0.9 kg/m3 and a viscosity ([1]; 308.15 K, x2 = 0.95) of 0.467 ± 0.009 mPa·s. For the same compound, the refractive index ([2]; 288.15 K, x2 = 0) was 1.4045 ± 0.0006, the refractive index ([2]; 288.15 K, x2 = 0.05) was 1.4032 ± 0.0006 and the refractive index ([2]; 288.15 K, x2 = 0.1) was 1.4015 ± 0.0006. It also gave a refractive index ([2]; 288.15 K, x2 = 0.2) of 1.3978 ± 0.0006, a refractive index ([2]; 288.15 K, x2 = 0.3) of 1.3936 ± 0.0006 and a refractive index ([2]; 288.15 K, x2 = 0.4) of 1.3885 ± 0.0006. For the same compound, the refractive index ([2]; 288.15 K, x2 = 0.5) was 1.3827 ± 0.0006, the refractive index ([2]; 288.15 K, x2 = 0.6) was 1.3759 ± 0.0006 and the refractive index ([2]; 288.15 K, x2 = 0.7) was 1.3679 ± 0.0006. For the same compound, the refractive index ([2]; 288.15 K, x2 = 0.8) was 1.3579 ± 0.0006, the refractive index ([2]; 288.15 K, x2 = 0.9) was 1.3457 ± 0.0006 and the refractive index ([2]; 288.15 K, x2 = 0.95) was 1.3384 ± 0.0006. For the same compound, the refractive index ([2]; 298.15 K, x2 = 0) was 1.3993 ± 0.0006, the refractive index ([2]; 298.15 K, x2 = 0.05) was 1.398 ± 0.0006 and the refractive index ([2]; 298.15 K, x2 = 0.1) was 1.3964 ± 0.0006. It also gave a refractive index ([2]; 298.15 K, x2 = 0.2) of 1.3927 ± 0.0006, a refractive index ([2]; 298.15 K, x2 = 0.3) of 1.3885 ± 0.0006 and a refractive index ([2]; 298.15 K, x2 = 0.4) of 1.3835 ± 0.0006. It also gave a refractive index ([2]; 298.15 K, x2 = 0.5) of 1.3778 ± 0.0006, a refractive index ([2]; 298.15 K, x2 = 0.6) of 1.371 ± 0.0006 and a refractive index ([2]; 298.15 K, x2 = 0.7) of 1.3628 ± 0.0006. The refractive index ([2]; 298.15 K, x2 = 0.8) was 1.3529 ± 0.0006, the refractive index ([2]; 298.15 K, x2 = 0.9) was 1.3413 ± 0.0006 and the refractive index ([2]; 298.15 K, x2 = 0.95) was 1.3342 ± 0.0006. It also gave a refractive index ([2]; 308.15 K, x2 = 0) of 1.3941 ± 0.0006, a refractive index ([2]; 308.15 K, x2 = 0.05) of 1.3928 ± 0.0006 and a refractive index ([2]; 308.15 K, x2 = 0.1) of 1.3912 ± 0.0006. The refractive index ([2]; 308.15 K, x2 = 0.2) was 1.3877 ± 0.0006, the refractive index ([2]; 308.15 K, x2 = 0.3) was 1.3834 ± 0.0006 and the refractive index ([2]; 308.15 K, x2 = 0.4) was 1.3785 ± 0.0006. For the same compound, the refractive index ([2]; 308.15 K, x2 = 0.5) was 1.3728 ± 0.0006, the refractive index ([2]; 308.15 K, x2 = 0.6) was 1.366 ± 0.0006 and the refractive index ([2]; 308.15 K, x2 = 0.7) was 1.3579 ± 0.0006. It also gave a refractive index ([2]; 308.15 K, x2 = 0.8) of 1.3478 ± 0.0006, a refractive index ([2]; 308.15 K, x2 = 0.9) of 1.3365 ± 0.0006 and a refractive index ([2]; 308.15 K, x2 = 0.95) of 1.3298 ± 0.0006.
Compound `CCCO` [propan-1-ol] + CCCCCl has a mass density ([1]; 288.15 K, x1 = 1) of 807.6 ± 0.9 kg/m3, a viscosity ([1]; 288.15 K, x1 = 1) of 2.504 ± 0.029 mPa·s and a mass density ([1]; 298.15 K, x1 = 1) of 799.6 ± 0.9 kg/m3. It also gave a viscosity ([1]; 298.15 K, x1 = 1) of 1.958 ± 0.023 mPa·s, a mass density ([1]; 308.15 K, x1 = 1) of 791.5 ± 0.9 kg/m3 and a viscosity ([1]; 308.15 K, x1 = 1) of 1.548 ± 0.019 mPa·s. The refractive index ([2]; 288.15 K, x1 = 1) was 1.3869 ± 0.0006, the refractive index ([2]; 298.15 K, x1 = 1) was 1.3829 ± 0.0006 and the refractive index ([2]; 308.15 K, x1 = 1) was 1.3789 ± 0.0006.
